Where “and” joins values, the source holds several entries; their conditions need not be identical. Identical values can stand only once.

Data set [1] can be described thus: Fluorescence quantum yield with integrating sphere. It is filed as physicochemical. The conditions noted are these: excitation 625 nm, 15 min at RT. The method, then: Fluorescence quantum yields (0%) measurements were performed on FluoroLog-31IHR-320 (HORIBA-JobinYvon) with integrating sphere accessory.
The measurements were carried out using an excitation wavelength of 625 nm and using a 450W Xenon Light Source. Detection was performed on TBX-04 detector from 645 to 850 nm (excitation and emission slit were 1.8 nm).
The fluorescence quantum yield of DA364 solution was measured both in human serum SERONORM (human-based control serum), NycomedPhama, batch 1109514) and in Phosphate Buffer Saline (PBS).
Solutions of the NIR agent were prepared in PBS and in human serum with absorbance lower than 0.1. Fluorescence (0%) measurements were carried out after incubation of the NIR agent at Room Temperature (RT) for 15 min.

The subject of data set [2] is rat orthotopic prostate tumor model Mat Ly-Lu. The data set can be described thus: Fluorescence guided-surgery in rat prostate tumor model, visual classification validated by histology. Format: in vivo, Copenhagen rats. On the procedure: This example is aimed at assessing the sensitivity of the NIR RGD cyclic probe DA364 in the recognition of tumor masses using rat orthotopic prostate tumor model Mat Ly-Lu (a tumor with reduced expression of αvβ3 integrins, as illustrated below).
Intraoperative imaging was performed on a Zeiss system, a modified surgical microscope including appropriate filters for illumination and selection of signals emitted from the probe. Rat tumoral MatLyLu prostate cells were inoculated in the right ventral lobe of the prostate. Three-four days after inoculation animals were intravenously injected with a dose ranging from 5 to 20 nmol/rat of NIR fluorescent probe and imaged 24 hours after. Tumors have been then resected through fluorescent signal guide. Tissues surrounding the fluorescent area including tissues from the left prostate lobe was excised for histological comparison. All the samples were analysed through routine histological processing (Hematoxylin and eosin stain) and additional immune-labelling.
The experiment was performed on 10 Copenhagen rats (males) 11 weeks old, purchased from Harlan Laboratories Srl, S.Pietro al Natisone (UD), Italy. Rat prostate adenocarcinoma was induced in Copenhagen rats by orthotopic injection of the MatLylu tumor cells under isofluorane anesthesia. About 1 hour before tumor implantation, an analgesic (Rymadil) was administered subcutaneously (5 mg/kg) to rats. Then the lower abdomen was shaved and disinfected (Betadinen. A 12 mm incision of the abdominal wall along the linea Alba was performed 3 to 4 cm above the urinary orifice. The prostate was exposed after having pushed away the adipose tissue on each side of the animal.
A cell suspension (30 μL) containing 0.5×10^6 tumor cells was injected with a 27G needle into the right ventral lobe of the prostate. The muscular and cutaneous plan was sewed up with sterile non-resorbable thread (3-0 black silk, Distrex S.p.a.). The wound was painted with disinfectant solution Betadine®. The analgesic was also administered at least once after surgery (about 24 h after). All procedures involving the animals have been conducted according to national and international laws and policies for the Care and Use of Laboratory Animals (EEC Council Directive 86/609CEE; L.D. 116/92 and EEC Council Directive 2010/63/EU; L.D. 26/2014. Authorization n.149/2006-A issued Oct. 27, 2006 by the Italian Ministry of Health).
The tumor removal was performed using a dedicated surgical microscope (Axio Zoom v16, Carl Zeiss Beteiligungs GmbH, Jena, Germany). The microscope was equipped with a PLANAPO Z 0.5×/0.125 FWD 114 MM objective. During surgery an area of about 2.5×2.5 cm^2 was visualized. The surgical field was white-light illuminated by a cold light source (CL 9000 LED CAN (D)) when the fluorescence signal was not required, and by filtered light during the tumor removal (Illuminator: HXP 200C (D), filter set: 32 Cy 5.5 shift free (E)).
The day before surgery, corresponding to 3-4 days after tumor implantation, animals were administered with a dose of DA364 test agent ranging from 5 to 20 nmol/rat. Twenty-four hours after probes injection, animals were anaesthetized with isofluorane gas 0.5% (O2 99.5%), secured on the surgical table in the supine position and prostate tumor will be exposed.
After the removal of the prostatic capsule, the prostatic tumor was exposed to filtered light and fluorescence images were acquired to outline the primary tumor mass and the margins of the pathology (see FIG. 3, Panels A and D). The removal of the tumor mass was then carried out iteratively, by using fluorescence to guide the excision until absence of the fluorescent signal in the area surrounding tumor region (see FIG. 3, Panels B,E and C,F). Most of the fluorescent signal was confined in implantation area, i.e. the prostate right ventral lobe. […]

A further data set deals with A431 tumor. The data set can be described thus: In vivo and ex vivo fluorescence imaging of tumor uptake (IVIS Spectrum). Also noted: species or system mice. On the procedure: (§1) A431 cells were collected and washed two times with PBS. Five million cells were resuspended in 0.1 mL of DMEM high glucose medium and subcutaneously injected in the right flank of all mice. Eleven days after A431 inoculation, U-87MG cells were collected and washed two times with PBS. Two million cells were resuspended in 0.1 mL of EMEM medium and subcutaneously injected in the left flank of same animals previously injected with A431 cells.
(§2) Three weeks after A431 tumor implantation five mice were administered with 1 nmol of DA364 for a total administration volume of 0.2 mL (inj. rate 1 mL/min). In vivo OI acquisitions have been carried out 5 min, 15 min, 30 min, 1 h, 2 h, 3 h, 4 h, 6 h, 24 h and 48 hours after intravenous administration of the fluorescent probe using the IVIS Spectrum optical imaging system (Perkin Elmer). During OI experiments animals were kept under 3-4% Sevofluorane gas anaesthesia (O2 97.0-96.0%). During anaesthesia animals body temperature has been stabilized at about 37° C. using a heated bed.
(§3) Following in vivo OI experiments, 48 hours after probes injection, animals were sacrificed. Tumors, liver, kidneys, heart and spleen were excised for ex vivo fluorescent signal measure on the whole excised tumor or organ.
(§4) Fluorescence intensity from U-87 MG and A431 tumors was measured in vivo together with the signal coming from the normal healthy tissues (background).
(§5) The fluorescent signal (expressed as Radiant Efficiency (RE): p/s/(μW/cm^2), where p is the photon count), was then measured on the excised ex vivo samples using the IVIS Spectrum optical imaging system (Perkin Elmer).

The test system of the next data set is U-87MG tumor. Described as above. Also noted: species or system mice. On the procedure: as §1, §2, §3, §4, §5
Data set [3] concerns the target Human Serum Albumin (HSA) (Homo sapiens, UniProt P02768). The data set can be described thus: In vitro binding assay towards human serum albumin (absorbance at 689 nm).
Experimental: Final solutions, containing 0.99 mM of the NIR agent and different amount of HSA, were incubated 1 h at room temperature before measurements. The absorbance of each solution was measured against a reference solution of HSA at the same concentration.
[4] abbreviates: 5 to 20 nmol/rat i.v., surgery 24 h after, versus histology.
Setting [5] is: ex vivo, 48 hours after 1 nmol i.v.

Chain of Human Serum Albumin (HSA) (P02768 25-609): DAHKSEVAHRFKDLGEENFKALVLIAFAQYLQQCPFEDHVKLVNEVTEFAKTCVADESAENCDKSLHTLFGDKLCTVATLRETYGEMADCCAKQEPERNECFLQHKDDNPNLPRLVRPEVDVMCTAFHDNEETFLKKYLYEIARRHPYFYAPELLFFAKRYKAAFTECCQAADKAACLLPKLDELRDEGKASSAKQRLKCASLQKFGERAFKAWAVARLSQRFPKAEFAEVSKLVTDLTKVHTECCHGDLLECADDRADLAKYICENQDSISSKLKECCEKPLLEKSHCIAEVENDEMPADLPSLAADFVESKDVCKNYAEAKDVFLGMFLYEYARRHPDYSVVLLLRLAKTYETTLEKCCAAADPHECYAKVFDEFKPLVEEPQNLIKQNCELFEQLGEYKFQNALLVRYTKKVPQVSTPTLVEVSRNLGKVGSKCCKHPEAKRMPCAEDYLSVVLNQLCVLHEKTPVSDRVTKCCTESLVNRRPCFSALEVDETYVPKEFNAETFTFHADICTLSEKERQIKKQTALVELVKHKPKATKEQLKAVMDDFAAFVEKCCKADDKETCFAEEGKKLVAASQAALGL

Regarding `CC[N+]1=C(/C=C/C=C/C=C2/N(CCCCCC(=O)NC[C@@H]3C[C@@H]4CC[C@H]5C(=O)N[C@@H](CCCNC(=N)N)C(=O)NCC(=O)N[C@@H](CC(=O)O)C(=O)N[C@H]3C(=O)N45)c3ccc4c(S(=O)(=O)O)cc(S(=O)(=O)O)cc4c3C2(C)C)C(C)(C)c2c1ccc1c(S(=O)(=O)[O-])cc(S(=O)(=O)O)cc21` [DA364], the “Φ% (fluorescence quantum yield)” value was 36.5% and 36.5 (SD 2.37) % in data set [1] (PBS); 57.5% and 57.5 (SD 1.26) % in data set [1] (SERONORM (human-based control serum)). The “sensitivity of visual classification of tumor tissues” value in data set [2] (setting [4]) turned out to be 87%. Also, in data set [2] (setting [4]), the “specificity of visual classification of tumor tissues” value is listed as 83%. Moreover, the figures for the “number of tissue samples, histology Negative” value in data set [2] (surgery class FLUORESCENT) and in data set [2] (surgery class NON FLUORESCENT) were 3 and 15, respectively. In addition, the “number of tissue samples, histology Positive” value came out at 20 in data set [2] (surgery class FLUORESCENT) and 3 in data set [2] (surgery class NON FLUORESCENT). Also, the “tumor signal ratio with respect to the background” value in the data set with A431 tumor (A431 tumor in vivo, 3 hours to 24 hours after injection) was “stable signal ratio”; with U-87MG tumor (U-87 MG tumor in vivo, 3 hours to 24 hours after injection) it was “stable signal ratio”. The “fluorescence intensity in A431 tumors relative to heart and spleen (background)” value in the data set with A431 tumor (setting [5]) was “about 10 times”. The “fluorescence intensity in A431 tumors relative to liver and kidney” value in the data set on A431 tumor (setting [5]) is reported as “comparable”. The “Fluorescence Signal (Radiant Efficiency)” value is 3.47E+08 p/s/(μW/cm^2) in the data set on A431 tumor (excised A431 tumor ex vivo, 48 hours after 1 nmol i.v.) and 6.78E+08 p/s/(μW/cm^2) in the data set on U-87MG tumor (excised U87-MG tumor ex vivo, 48 hours after 1 nmol i.v.). Also, the “visualization of tumor under skin (FIG. 9)” value with A431 tumor (low-integrin expressing tumor A431, in vivo fluorescence imaging) is on record as “clear visualization”. Also, the “fluorescence signal in U-87MG tumor relative to A431 tumor” value with U-87MG tumor (setting [5]) is “about twice”. Also, binding in data set [3] was characterised by a dissociation constant (Kd) of 34.9 µM. Besides, the “association constant with HSA (ka)” value in data set [3] (PBS, 1 h at room temperature) is 28670 ± 1140 M⁻¹.

Broadly, the Kd is the constant that tells how readily two partners part at equilibrium.

These data come from US10682427B2, “Intra-operative imaging” (BRACCO IMAGING S.P.A., priority 2014, dated 2020).
